{"source": "patent US20220251153A1", "about": "“PEPTIDES FOR THE TREATMENT OF RENAL DISORDERS” (THE GEORGE WASHINGTON UNIVERSITY, priority 2019, published 2022)", "format_in_all_cases": "in vivo, mouse", "key": {"[1]": {"tested_on": "C57Bl/6 mice with unilateral ureter obstruction (UUO)", "assay": "Sirius Red staining of kidney sections, UUO model of renal fibrosis", "conditions": "3 mg/kg subcutaneously the day before and daily for 14 days after UUO", "method": "The effect of ND-13 on renal disease was then assessed. Unilateral ureter obstruction (UUO) was chosen as a model of renal disease to determine if ND-13 has a protective effect. The UUO model is an known model of human and animal kidney disease, which mimics the effects of chronic kidney disease and diabetes (i.e., diabetic nephropathy), due to its capability of generating a progressive renal (tubule interstitial) fibrosis and has advantages of good reproducibility, a short time course and the presence of a contralateral kidney as control.\nC57Bl/6 control mice as well as DJ-1 knockout mice were subjected to UUO in order to examine mechanisms involved in renal tubule interstitial fibrosis in vivo and to determine if ND-13 has a protective effect against renal disease. DJ-1 knockout mice used herein were from the original F2 hybrid strain (129/SvXC57BL/6J) that contained the mutated DJ-1 allele (DJ-1−/−) backcrossed to wild-type C57BL/6J for >20 generations and genotyped. […]\nRenal interstitial fibrosis was assessed in the mice by Sirius Red staining. […] Sirius Red staining was examined with an Olympus BX-41 microscope and the amount of collagen in the kidney was quantified by ImageJ software. Two images of about 70% of the renal cortical sections were used in the quantification. […]"}, "[2]": {"tested_on": "TNF-alpha, IL-6, Col1a1 and TGF-beta mRNA in kidneys of C57Bl/6 mice with UUO", "assay": "qRT-PCR of renal inflammatory and fibrotic marker mRNA after UUO", "conditions": "14 days after UUO, normalized by GAPDH", "source_text": "(§1) C57Bl/6 control mice as well as DJ-1 knockout mice were subjected to UUO in order to examine mechanisms involved in renal tubule interstitial fibrosis in vivo and to determine if ND-13 has a protective effect against renal disease. DJ-1 knockout mice used herein were from the original F2 hybrid strain (129/SvXC57BL/6J) that contained the mutated DJ-1 allele (DJ-1−/−) backcrossed to wild-type C57BL/6J for >20 generations and genotyped. Prior to UUO, ND-13 peptide and scrambled control peptide (3 mg/kg diluted in […] of saline) were injected subcutaneously to C57Bl/6 and DJ-1 knockout mice the day before performing the complete UUO. For UUO surgery, the procedure was performed as follows. Briefly, mice were anesthetized with isofluorane (3-5% for induction and 1-3% for maintenance) and divided into two experimental groups: the UUO group and the sham operation group. In the UUO group, mice were shaved on the left side of the abdomen, a vertical incision was made through the skin with a scalpel and the skin was retracted. A second incision was made through the peritoneum to expose the kidney. The left ureter was ligated twice 15 mm below the renal pelvis with surgical silk and the ureter was then severed between the two ligatures. Then, the ligated kidney was placed gently back into its correct anatomical position and sterile saline was added to replenish loss of fluid. The incisions were sutured and mice were individually caged. Buprenorphine was used as an analgesic. 24 hours after UUO surgery, the ND-13 peptide and scrambled control peptide (3 mg/kg diluted in 100 ml of saline) were injected subcutaneously to C57Bl/6 and DJ-1 knockout mice and then injected every day thereafter for 14 days following UUO. Untreated normal C57Bl/6 mice served as a control. After 14 days, urine was collected and the mice were sacrificed. Tissues, including the kidneys, were obtained for analyses.\n(§2) Next, the effect of ND-13 on mRNA expression of inflammatory and fibrotic markers in the kidneys of mice with UUO was tested. Briefly, RNA was extracted from whole renal tissue harvested from ND-13-treated C57Bl/6 and DJ-1 knockout mice 14 days after the UUO procedure. RNA extracted from untreated C57Bl/6 mice served as the control. The extracted RNA was subjected to qRT-PCR using standard methods. The mRNA expression of TNF-alpha (tumor necrosis factor alpha), IL-6 (Interleukin 6), Col1a1 (collagen, type I, alpha 1) and TGF-beta (transforming growth factor beta) were quantified by qRT-PCR in mice from each group. Data were normalized by expression of the house keeping gene GAPDH (glyceraldehyde 3-phosphate dehydrogenase). […] The increased renal expressions of TNF alpha and IL-6, and TGF-beta associated with UUO was decreased by ND-13 in both C57Bl/6 mice (FIGS. 3A, 3B, and 3D) and DJ-1 knockout mice (FIGS. 3E, 3F, and […])."}, "[3]": {"tested_on": "TNF-alpha, IL-6, Col1a1 and TGF-beta mRNA in kidneys of DJ-1 knockout mice with UUO", "assay": "qRT-PCR of renal inflammatory and fibrotic marker mRNA after UUO", "conditions": "14 days after UUO, normalized by GAPDH", "source_text": "as §1, §2"}, "[4]": {"tested_on": "DJ-1 knockout mice with unilateral ureter obstruction (UUO)", "assay": "Urinary NGAL ELISA after UUO", "conditions": "urine 14 days after UUO, 3 mg/kg subcutaneously daily", "source_text": "as §1, with “The incisions were sutured and mice were individually caged. Buprenorphine was used as an analgesic. 24 hours after UUO surgery, the ND-13 peptide and scrambled control peptide (3 mg/kg diluted in 100 ml of saline) were injected subcutaneously to C57Bl/6 and DJ-1 knockout mice and then injected every day thereafter for 14 days following UUO. Untreated normal C57Bl/6 mice served as a control. After 14 days, urine was collected and the mice were sacrificed. Tissues, including the kidneys, were obtained for analyses.” left out"}, "[5]": {"tested_on": "C57Bl/6 mice with unilateral ureter obstruction (UUO)", "assay": "Urinary NGAL ELISA after UUO", "conditions": "urine 14 days after UUO, 3 mg/kg subcutaneously daily", "source_text": "as §1, with “The incisions were sutured and mice were individually caged. Buprenorphine was used as an analgesic. 24 hours after UUO surgery, the ND-13 peptide and scrambled control peptide (3 mg/kg diluted in 100 ml of saline) were injected subcutaneously to C57Bl/6 and DJ-1 knockout mice and then injected every day thereafter for 14 days following UUO. Untreated normal C57Bl/6 mice served as a control. After 14 days, urine was collected and the mice were sacrificed. Tissues, including the kidneys, were obtained for analyses.” left out"}}}
{"sequence": "YGRKKRRKGAEEMETVIPVD [ND-13]", "values": [{"measurement": "renal interstitial fibrosis (collagen, Sirius Red staining)", "setting": "[1]", "result": "prevented fibrosis"}, {"measurement": "renal mRNA expression of Col1a1", "setting": "[2]", "result": "decreased"}, {"measurement": "renal mRNA expression of IL-6", "setting": "[2]", "result": "decreased"}, {"measurement": "renal mRNA expression of TGF-beta", "setting": "[2]", "result": "decreased"}, {"measurement": "renal mRNA expression of TNF-alpha", "setting": "[2]", "result": "decreased"}, {"measurement": "renal mRNA expression of Col1a1", "setting": "[3]", "result": "not DJ-1 knockout mice"}, {"measurement": "renal mRNA expression of IL-6", "setting": "[3]", "result": "decreased"}, {"measurement": "renal mRNA expression of TGF-beta", "setting": "[3]", "result": "decreased"}, {"measurement": "renal mRNA expression of TNF-alpha", "setting": "[3]", "result": "decreased"}, {"measurement": "urinary NGAL (marker of renal damage)", "setting": "[4]", "result": "not protected"}, {"measurement": "urinary NGAL (marker of renal damage)", "setting": "[5]", "result": "decreased urinary NGAL to control levels"}]}
